In PubChem BioAssay (NCI):
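Cultured in 96-well plates, cells were exposed to test compound for 48 hours across five concentrations. TGI: total growth inhibition.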

Assays:
Test in all cases: growth of human tumour cells (NCI), 48 h
786-0 renal = test system: 786-0 renal
A498 renal = test system: A498 renal
A549 NSCLC = test system: A549 NSCLC
ACHN renal = test system: ACHN renal
BT-549 breast = test system: BT-549 breast
CAKI-1 renal = test system: CAKI-1 renal
CCRF-CEM leukemia = test system: CCRF-CEM leukemia
COLO 205 colon = test system: COLO 205 colon
DU-145 prostate = test system: DU-145 prostate
EKVX NSCLC = test system: EKVX NSCLC
HCC-2998 colon = test system: HCC-2998 colon
HCT-116 colon = test system: HCT-116 colon
HCT-15 colon = test system: HCT-15 colon
HL-60(TB) leukemia = test system: HL-60(TB) leukemia
HOP-62 NSCLC = test system: HOP-62 NSCLC
HOP-92 NSCLC = test system: HOP-92 NSCLC
HS 578T breast = test system: HS 578T breast
HT29 colon = test system: HT29 colon
IGROV1 ovarian = test system: IGROV1 ovarian
K-562 leukemia = test system: K-562 leukemia
KM12 colon = test system: KM12 colon
LOX IMVI melanoma = test system: LOX IMVI melanoma
M14 melanoma = test system: M14 melanoma
MCF7 breast = test system: MCF7 breast
MDA-MB-231 breast = test system: MDA-MB-231 breast
MDA-MB-435 = test system: MDA-MB-435
MDA-N = test system: MDA-N
MOLT-4 leukemia = test system: MOLT-4 leukemia
NCI-H226 lung = test system: NCI-H226 lung
NCI-H23 lung = test system: NCI-H23 lung
NCI-H460 lung = test system: NCI-H460 lung
NCI-H522 lung = test system: NCI-H522 lung
NCI/ADR-RES ovarian = test system: NCI/ADR-RES ovarian
OVCAR-4 ovarian = test system: OVCAR-4 ovarian
OVCAR-5 ovarian = test system: OVCAR-5 ovarian
OVCAR-8 ovarian = test system: OVCAR-8 ovarian
PC-3 prostate = test system: PC-3 prostate
RXF 393 renal = test system: RXF 393 renal
SF-268 CNS = test system: SF-268 CNS
SF-295 CNS = test system: SF-295 CNS
SF-539 CNS = test system: SF-539 CNS
SK-MEL-2 melanoma = test system: SK-MEL-2 melanoma
SK-MEL-28 melanoma = test system: SK-MEL-28 melanoma
SK-MEL-5 melanoma = test system: SK-MEL-5 melanoma
SN12C renal = test system: SN12C renal
SNB-19 CNS = test system: SNB-19 CNS
SNB-75 CNS = test system: SNB-75 CNS
SR leukemia = test system: SR leukemia
SW-620 colon = test system: SW-620 colon
T-47D breast = test system: T-47D breast
TK-10 renal = test system: TK-10 renal
U251 CNS = test system: U251 CNS
UACC-257 melanoma = test system: UACC-257 melanoma
UACC-62 melanoma = test system: UACC-62 melanoma
UO-31 renal = test system: UO-31 renal
MALME-3M melanoma = test system: MALME-3M melanoma
OVCAR-3 ovarian = test system: OVCAR-3 ovarian
RPMI-8226 leukemia = test system: RPMI-8226 leukemia
SK-OV-3 ovarian = test system: SK-OV-3 ovarian

SMILES: Cc1cc(=O)[nH]c2cc(NC(=O)C(C)NC(=O)C(C)NC(=O)C(C)NC(=O)OC(C)(C)C)ccc12 (configuration not stated)
- TGI (786-0 renal): > 15 µM
- TGI (A498 renal): > 15 µM
- TGI (A549 NSCLC): > 15 µM
- TGI (ACHN renal): > 15 µM
- TGI (BT-549 breast): > 15 µM
- TGI (CAKI-1 renal): > 15 µM
- TGI (CCRF-CEM leukemia): > 15 µM
- TGI (COLO 205 colon): > 15 µM
- TGI (DU-145 prostate): > 15 µM
- TGI (EKVX NSCLC): > 15 µM
- TGI (HCC-2998 colon): > 15 µM
- TGI (HCT-116 colon): > 15 µM
- TGI (HCT-15 colon): > 15 µM
- TGI (HL-60(TB) leukemia): > 15 µM
- TGI (HOP-62 NSCLC): > 15 µM
- TGI (HOP-92 NSCLC): > 15 µM
- TGI (HS 578T breast): > 15 µM
- TGI (HT29 colon): > 15 µM
- TGI (IGROV1 ovarian): > 15 µM
- TGI (K-562 leukemia): > 15 µM
- TGI (KM12 colon): > 15 µM
- TGI (LOX IMVI melanoma): > 15 µM
- TGI (M14 melanoma): > 15 µM
- TGI (MCF7 breast): > 15 µM
- TGI (MDA-MB-231 breast): > 15 µM
- TGI (MDA-MB-435): > 15 µM
- TGI (MDA-N): > 15 µM
- TGI (MOLT-4 leukemia): > 15 µM
- TGI (NCI-H226 lung): > 15 µM
- TGI (NCI-H23 lung): > 15 µM
- TGI (NCI-H460 lung): > 15 µM
- TGI (NCI-H522 lung): > 15 µM
- TGI (NCI/ADR-RES ovarian): > 15 µM
- TGI (OVCAR-4 ovarian): > 15 µM
- TGI (OVCAR-5 ovarian): > 15 µM
- TGI (OVCAR-8 ovarian): > 15 µM
- TGI (PC-3 prostate): > 15 µM
- TGI (RXF 393 renal): > 15 µM
- TGI (SF-268 CNS): > 15 µM
- TGI (SF-295 CNS): > 15 µM
- TGI (SF-539 CNS): > 15 µM
- TGI (SK-MEL-2 melanoma): > 15 µM
- TGI (SK-MEL-28 melanoma): > 15 µM
- TGI (SK-MEL-5 melanoma): > 15 µM
- TGI (SN12C renal): > 15 µM
- TGI (SNB-19 CNS): > 15 µM
- TGI (SNB-75 CNS): > 15 µM
- TGI (SR leukemia): > 15 µM
- TGI (SW-620 colon): > 15 µM
- TGI (T-47D breast): > 15 µM
- TGI (TK-10 renal): > 15 µM
- TGI (U251 CNS): > 15 µM
- TGI (UACC-257 melanoma): > 15 µM
- TGI (UACC-62 melanoma): > 15 µM
- TGI (UO-31 renal): > 15 µM

SMILES: COc1ccc(SCc2cc(OC)ccc2OC)cc1
- TGI (786-0 renal): > 100 µM
- TGI (A498 renal): > 87.1 µM
- TGI (A549 NSCLC): > 100 µM
- TGI (ACHN renal): > 100 µM
- TGI (BT-549 breast): > 74.3 µM
- TGI (CAKI-1 renal): > 100 µM
- TGI (CCRF-CEM leukemia): > 96.4 µM
- TGI (COLO 205 colon): > 61 µM
- TGI (DU-145 prostate): > 100 µM
- TGI (EKVX NSCLC): > 100 µM
- TGI (HCC-2998 colon): 37 µM
- TGI (HCT-116 colon): > 100 µM
- TGI (HCT-15 colon): > 66.3 µM
- TGI (HL-60(TB) leukemia): > 100 µM
- TGI (HOP-62 NSCLC): > 100 µM
- TGI (HOP-92 NSCLC): 94.3 µM
- TGI (HS 578T breast): 97.7 µM
- TGI (HT29 colon): > 100 µM
- TGI (IGROV1 ovarian): > 100 µM
- TGI (K-562 leukemia): > 51.3 µM
- TGI (KM12 colon): > 100 µM
- TGI (LOX IMVI melanoma): > 100 µM
- TGI (M14 melanoma): > 100 µM
- TGI (MALME-3M melanoma): > 100 µM
- TGI (MCF7 breast): > 100 µM
- TGI (MDA-MB-231 breast): > 100 µM
- TGI (MDA-MB-435): 13 µM
- TGI (MDA-N): 32.7 µM
- TGI (MOLT-4 leukemia): > 91.2 µM
- TGI (NCI-H226 lung): > 100 µM
- TGI (NCI-H23 lung): > 100 µM
- TGI (NCI-H460 lung): > 100 µM
- TGI (NCI-H522 lung): > 100 µM
- TGI (NCI/ADR-RES ovarian): > 100 µM
- TGI (OVCAR-3 ovarian): > 91.7 µM
- TGI (OVCAR-4 ovarian): > 100 µM
- TGI (OVCAR-5 ovarian): > 100 µM
- TGI (OVCAR-8 ovarian): > 100 µM
- TGI (PC-3 prostate): > 100 µM
- TGI (RPMI-8226 leukemia): > 100 µM
- TGI (RXF 393 renal): > 100 µM
- TGI (SF-268 CNS): > 100 µM
- TGI (SF-295 CNS): > 100 µM
- TGI (SF-539 CNS): > 100 µM
- TGI (SK-MEL-2 melanoma): > 88.8 µM
- TGI (SK-MEL-28 melanoma): > 100 µM
- TGI (SK-MEL-5 melanoma): 98.9 µM
- TGI (SK-OV-3 ovarian): > 71.8 µM
- TGI (SN12C renal): > 100 µM
- TGI (SNB-19 CNS): > 100 µM
- TGI (SNB-75 CNS): > 52.8 µM
- TGI (SR leukemia): > 100 µM
- TGI (SW-620 colon): > 100 µM
- TGI (T-47D breast): > 100 µM
- TGI (TK-10 renal): > 100 µM
- TGI (U251 CNS): > 100 µM
- TGI (UACC-257 melanoma): > 100 µM
- TGI (UACC-62 melanoma): > 100 µM
- TGI (UO-31 renal): > 100 µM

SMILES: CCOC(=O)NC(Nc1ccc(F)cc1F)(C(F)(F)F)C(F)(F)F
- TGI (786-0 renal): > 100 µM
- TGI (A498 renal): > 100 µM
- TGI (A549 NSCLC): > 100 µM
- TGI (ACHN renal): > 100 µM
- TGI (BT-549 breast): > 100 µM
- TGI (CAKI-1 renal): > 100 µM
- TGI (CCRF-CEM leukemia): > 100 µM
- TGI (COLO 205 colon): > 100 µM
- TGI (DU-145 prostate): > 100 µM
- TGI (EKVX NSCLC): > 100 µM
- TGI (HCC-2998 colon): > 100 µM
- TGI (HCT-116 colon): > 100 µM
- TGI (HCT-15 colon): > 100 µM
- TGI (HL-60(TB) leukemia): > 100 µM
- TGI (HOP-62 NSCLC): > 100 µM
- TGI (HOP-92 NSCLC): > 100 µM
- TGI (HS 578T breast): > 100 µM
- TGI (HT29 colon): > 100 µM
- TGI (IGROV1 ovarian): > 100 µM
- TGI (K-562 leukemia): > 100 µM
- TGI (KM12 colon): > 100 µM
- TGI (LOX IMVI melanoma): > 100 µM
- TGI (M14 melanoma): > 100 µM
- TGI (MALME-3M melanoma): > 100 µM
- TGI (MCF7 breast): > 100 µM
- TGI (MDA-MB-231 breast): > 100 µM
- TGI (MDA-MB-435): > 100 µM
- TGI (MDA-N): > 100 µM
- TGI (MOLT-4 leukemia): > 100 µM
- TGI (NCI-H226 lung): > 100 µM
- TGI (NCI-H23 lung): > 100 µM
- TGI (NCI-H460 lung): > 100 µM
- TGI (NCI-H522 lung): > 100 µM
- TGI (NCI/ADR-RES ovarian): > 100 µM
- TGI (OVCAR-3 ovarian): > 100 µM
- TGI (OVCAR-5 ovarian): > 100 µM
- TGI (OVCAR-8 ovarian): > 100 µM
- TGI (PC-3 prostate): > 100 µM
- TGI (RPMI-8226 leukemia): > 100 µM
- TGI (RXF 393 renal): > 100 µM
- TGI (SF-268 CNS): > 100 µM
- TGI (SF-295 CNS): > 100 µM
- TGI (SF-539 CNS): > 100 µM
- TGI (SK-MEL-2 melanoma): > 100 µM
- TGI (SK-MEL-28 melanoma): > 100 µM
- TGI (SK-MEL-5 melanoma): > 100 µM
- TGI (SK-OV-3 ovarian): > 100 µM
- TGI (SN12C renal): > 100 µM
- TGI (SNB-19 CNS): > 100 µM
- TGI (SNB-75 CNS): > 100 µM
- TGI (SR leukemia): > 100 µM
- TGI (SW-620 colon): > 100 µM
- TGI (T-47D breast): > 100 µM
- TGI (TK-10 renal): > 100 µM
- TGI (U251 CNS): > 100 µM
- TGI (UACC-257 melanoma): > 100 µM
- TGI (UACC-62 melanoma): > 100 µM
- TGI (UO-31 renal): > 100 µM
